Laboratory results: patent publication US4780462A, “Antihypertensive 1,5-benzothiazepine derivatives and compositions thereof” (Kotokuki Seiya Kau Co., Ltd., priority 1986, dated 1988)

Tests used:
[1] = system: Guinea-pig taenia caecum; test: Ca++-antagonistic activity (isolated guinea-pig taenia caecum); settings: Cavia porcellus, 0.05 h; Ca++-induced contraction of taenia caecum, Ca++-free Krebs Ringer; pretreatment with compound 3 minutes before; read-out: PA2 value (converted)
Method: Ca^++ -Antagonistic activity. Experiments are carried out according to the method of M. Ferrari (Arch. Intern. Pharmacoadyn. 174, 223 (1968) Guinea-pig taenia caecum is isolated and suspended in a bath which is filled with Ca^++ -free Krebs Ringer solution for 30 minutes. In this condition, taenia caecum is contracted by elevating Ca^++ -ion concentration of Krebs Ringer and obtained a dose-response curve against Ca^++ -ion. Pretreatment with the compound of this invention before 3 minutes, and obtained a dose-response curve under the existence of the compound of this invention.
From these two dose-response curves, PA2 value is calculated and PA2 is expressed as index of activities. (Table 1)

[2] = Acute toxicity in mice per os; settings: mouse, in vivo, po
From the text: The acute toxicity of the compounds of this invention in mice per os is as follows. (Table 4)

[3] = system: anesthetized normotensive rats; test: Antihypertensive activity on anesthetized normotensive rats; assay type: in vivo; settings: dose which lowers the mean blood pressure by 15 mmHg, i.v. (femoral vein); urethane anesthetized normotensive male Wistar rats
Method: The antihypertensive activities of the compounds on anesthetized normotensive rats were tested according to the method of H. Sogabe.^(1) Male Wistar rats weighing 200-300 g were anesthetized with urethane (1.2 g/kg. i.v.). Blood pressure was measured by a transducer (Nihon Koden RT-5) connected the catheter inserted into the femoral artery. The test compounds in physiological saline (0.1 ml/100 g. B.W.) were injected via the femoral vein. The antihypertensive activity was assessed by comparing with MBP15 (dose which lowers the mean blood pressure by 15 mmHg, mg/kg i.v.).
(1) Hirobumi Sogabe "Jikken Kouketsuatsushou nyuumon" p227 (Eikoudo 1968).

[4] = system: isolated guinea-pig heart; test: Coronary artery dilating activity (Rangendorf method, isolated guinea-pig heart); settings: coronary blood flow examined for 2 minutes
From the text: The coronary artery dilating activity of the compounds is estimated by Rangendorf method (Pfugers. Arch. Ges. Physiol. 62, 291 (1895)) using the isolated guinea-pig heart.

| SMILES | Kb [1] [nM] | Antihypertensive act. (M.B.P.15) [3] [µg] | maximum increased blood flow ([4]; 10 μg/heart) [mL] | maximum increased blood flow ([4]; 30 μg/heart) [mL] | further results |
| --- | --- | --- | --- | --- | --- |
| COc1cccc(OC)c1OCCNCCC(=O)N1CCCSc2ccccc21 [Compound 1, 5-[3-(2-(2-,6-dimethoxyphenoxy)ethylamino)-propionyl]-2,3,4,5-tetrahydro-1,5-benzothiazepine·fumarate] | 813 |  |  |  |  |
| CC(C)c1cccc(C(C)C)c1OCCNCCC(=O)N1CCCSc2ccccc21 [Compound 3, 5-[3-(2-(2,6-diisopropylphenoxy)ethylamino)-propionyl]-2,3,4,5-tetrahydro-1,5-benzothiazepine·fumarate] |  | 1.35 |  |  | LD50 [2]: 1500 mg/kg |
| Cc1cccc(C)c1OCCNCCC(=O)N1CCCSc2ccccc21 [Compound 4, 5-[3-(2-(2,6-dimethylphenoxy)ethylamino)propionyl]-2,3,4,5-tetrahydro-1,5-benzothiazepine·fumarate] | 102 |  | 7.2 | 19.2 |  |
| O=C(CCNCCSc1ccc([N+](=O)[O-])cc1)N1CCCSc2ccccc21 [Compound 5, 5-[3-(2-(4-nitrophenylthio)ethylamino)propionyl]-2,3,4,5-tetrahydro-1,5-benzothiazepine·fumarate] | 97.7 | 2.0 |  |  |  |
| Nc1cccc(OCCNCCC(=O)N2CCCSc3ccccc32)c1 [Compound 6, 5-[3-(2-(3-aminophenoxy)ethylamino)propionyl]-2,3,4,5-tetrahydro-1,5-benzothiazepine·fumarate] |  |  | 4.6 | 6.0 |  |
| O=C(CCNCCOc1cccc([N+](=O)[O-])c1)N1CCCSc2ccccc21 [Compound 7, 5-[3-(2-(3-nitrophenoxy)ethylamino)propionyl]-2,3,4,5-tetrahydro-1,5-benzothiazepine·fumarate] | 245 | 4.2 |  |  |  |
| COc1ccc(OCCNCCC(=O)N2CCCSc3ccccc32)cc1 [Compound 8, 5-[3-(2-(4-methoxyphenoxy)ethylamino)propionyl]-2,3,4,5-tetrahydro-1,5-benzothiazepine·fumarate] | 603 |  |  |  |  |
| Cc1cccc(OCCNCCC(=O)N2CCCSc3ccccc32)c1 [Compound 11, 5-[3-(2-(3-methylphenoxy)ethylamino)propionyl]-2,3,4,5-tetrahydro-1,5-benzothiazepine·fumarate] |  | 34.7 |  | 16.5 | maximum increased blood flow ([4]; 3 μg/heart): 7.7 mL |
| Cc1cc(C)c(OCCNCCC(=O)N2CCCSc3ccccc32)c(C)c1 [Compound 12, 5-[3-(2-(2,4,6-trimethylphenoxy)ethylamino)propionyl]-2,3,4,5-tetrahydro-1,5-benzothiazepine·fumarate] | 55 |  | 11.3 | 18.3 |  |
| O=C(CCNCCOc1ccc(Cl)cc1Cl)N1CCCSc2ccccc21 [Compound 13, 5-[3-(2-(2,4-dichlorophenoxy)ethylamino)propionyl]-2,3,4,5-tetrahydro-1,5-benzothiazepine·fumarate] | 126 | 3.5 |  |  |  |
| Nc1ccccc1OCCNCCC(=O)N1CCCSc2ccccc21 [Compound 15, 5-[3-(2-(2-aminophenoxy)ethylamino)propionyl]-2,3,4,5-tetrahydro-1,5-benzothiazepine·fumarate] |  |  |  | 2.0 | LD50 [2]: 374 mg/kg |
| O=C(CCNCCOc1ccc([N+](=O)[O-])cc1)N1CCCSc2ccccc21 [Compound 16, 5-[3-(2-(4-nitrophenoxy)ethylamino)propionyl]-2,3,4,5-tetrahydro-1,5-benzothiazepine·fumarate] |  |  | 4.2 |  |  |
| Cc1cccc(C)c1SCCNCCC(=O)N1CCCSc2ccccc21 [Compound 17, 5-[3-(2-(2,6-dimethylphenylthio)ethylamino)propionyl]-2,3,4,5-tetrahydro-1,5-benzothiazepine·fumarate] |  | 9.3 |  |  |  |
